Laboratory results as given in ChEMBL document CHEMBL5375953, “Discovery of Biaryl Amide Derivatives as Potent, Selective, and Orally Bioavailable RORγt Agonists for Cancer Immunotherapy” (J Med Chem, 2023).
pEC50: −log10 of the molar value.

Columns and labels:
in vivo = conditions: CD-1, mouse, po, 10 mg/kg
[1] = target: T1, Nuclear receptor ROR-beta (Homo sapiens) (UniProt Q92753); assay: Agonist activity at human Gal4-fused RORbeta expressed in HEK293T cells assessed as luciferase activity by measuring maximal response incubated for 16 to 20 hrs by Luciferase reporter gene assay relative to control; format: cell-based; conditions: filed as agonist, time 16-20 hrs
T1 sequence (whole entry): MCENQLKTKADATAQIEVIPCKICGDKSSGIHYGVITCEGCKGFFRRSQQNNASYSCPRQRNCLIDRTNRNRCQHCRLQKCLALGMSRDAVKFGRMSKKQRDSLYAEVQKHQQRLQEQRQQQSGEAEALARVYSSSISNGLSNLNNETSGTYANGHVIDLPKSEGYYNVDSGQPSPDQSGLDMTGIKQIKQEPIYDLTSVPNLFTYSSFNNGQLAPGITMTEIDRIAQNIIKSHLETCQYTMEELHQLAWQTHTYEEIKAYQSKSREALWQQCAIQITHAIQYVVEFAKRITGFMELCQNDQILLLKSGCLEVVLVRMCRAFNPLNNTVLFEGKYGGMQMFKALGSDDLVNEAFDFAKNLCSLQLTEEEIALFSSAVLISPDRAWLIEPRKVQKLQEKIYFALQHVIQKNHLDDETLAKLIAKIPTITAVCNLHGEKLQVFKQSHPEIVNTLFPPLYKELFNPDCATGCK

[2] = target: T2, Nuclear receptor ROR-alpha (Homo sapiens) (UniProt P35398); assay: Agonist activity at human Gal4-fused RORalpha expressed in HEK293T cells assessed as luciferase activity by measuring maximal response incubated for 16 to 20 hrs by Luciferase reporter gene assay relative to control; format: cell-based; conditions: filed as agonist, time 16-20 hrs
T2 sequence (whole entry): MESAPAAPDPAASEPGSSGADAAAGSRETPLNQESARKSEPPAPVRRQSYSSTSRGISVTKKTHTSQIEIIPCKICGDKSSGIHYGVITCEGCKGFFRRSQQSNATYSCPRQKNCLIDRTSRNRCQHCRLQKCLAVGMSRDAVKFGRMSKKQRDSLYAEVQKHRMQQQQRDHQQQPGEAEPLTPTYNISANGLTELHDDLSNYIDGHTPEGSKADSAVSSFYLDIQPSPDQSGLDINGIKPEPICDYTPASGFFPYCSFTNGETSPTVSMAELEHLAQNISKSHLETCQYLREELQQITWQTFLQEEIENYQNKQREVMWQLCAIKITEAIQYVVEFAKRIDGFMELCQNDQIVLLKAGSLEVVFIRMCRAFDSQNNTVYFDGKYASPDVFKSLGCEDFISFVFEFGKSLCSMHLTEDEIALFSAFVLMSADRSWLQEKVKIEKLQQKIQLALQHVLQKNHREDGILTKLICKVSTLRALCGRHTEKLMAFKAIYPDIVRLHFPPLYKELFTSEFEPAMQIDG

[3] = target: T3, Nuclear receptor ROR-beta (Homo sapiens, UniProt Q92753); assay: Agonist activity at human Gal4-fused RORbeta expressed in HEK293T cells assessed as luciferase activity incubated for 16 to 20 hrs by Luciferase reporter gene assay; format: cell-based
T3 sequence (Q92753 whole entry): T1 sequence (whole entry)

cells = conditions: Mus musculus, CD4+ T cell, 96 h
Description: Induction of Th17 cells differentiation in mouse CD4+ T cell assessed as increase in CD4+ IL-17A production incubated for 4 days by flow cytometry analysis

B16-F10 = assay: Antitumor activity against mouse B16-F10 cells xenografted in C57BL/6 mouse assessed as tumor growth inhibition at 50 mg/kg,ip administrated on day 7 for 8 days relative to control; format: functional; conditions: B16-F10, 192 h, time 8 day, read-out: TGI
[4] = target: T4, Nuclear receptor ROR-alpha (Homo sapiens, UniProt P35398); assay: Agonist activity at human Gal4-fused RORalpha expressed in HEK293T cells assessed as luciferase activity incubated for 16 to 20 hrs by Luciferase reporter gene assay; format: cell-based
T4 sequence (P35398 whole entry): T2 sequence (whole entry)

[5] = target: T5, Nuclear receptor ROR-gamma (Homo sapiens, UniProt P51449); assay: Agonist activity at biotinylated APC-labeled RORgammat LBD (unknown origin) assessed as increase in recruitment of europium-labeled SRC1 coactivator peptide incubated for 1 hr by dual FRET assay
T5 sequence (P51449 whole entry): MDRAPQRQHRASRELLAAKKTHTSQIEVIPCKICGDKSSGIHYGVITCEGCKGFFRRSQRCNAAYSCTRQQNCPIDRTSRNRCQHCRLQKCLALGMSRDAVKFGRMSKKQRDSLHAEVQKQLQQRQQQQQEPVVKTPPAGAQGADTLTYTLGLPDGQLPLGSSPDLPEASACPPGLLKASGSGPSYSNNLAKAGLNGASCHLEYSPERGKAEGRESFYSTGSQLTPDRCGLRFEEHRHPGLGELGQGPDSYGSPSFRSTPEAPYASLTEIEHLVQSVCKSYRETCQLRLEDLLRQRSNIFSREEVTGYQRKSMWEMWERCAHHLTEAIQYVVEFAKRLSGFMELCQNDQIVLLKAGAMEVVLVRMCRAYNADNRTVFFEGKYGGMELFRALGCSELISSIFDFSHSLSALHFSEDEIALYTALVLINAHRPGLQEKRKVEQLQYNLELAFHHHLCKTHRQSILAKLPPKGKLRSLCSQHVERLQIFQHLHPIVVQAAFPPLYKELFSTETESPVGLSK

[6] = Metabolic Stability in mouse liver microsome assessed as half life at […] measured upto 60 mins by HPLC-MS/MS analysis; format: ADME; conditions: liver microsomes
[7] = Metabolic Stability in mouse liver microsome assessed as microsomal intrinsic clearance at […] measured upto 60 mins by HPLC-MS/MS analysis; format: ADME; conditions: liver microsomes, read-out: CLH
[8] = Metabolic Stability in human liver microsome assessed as half life at […] measured upto 60 mins by HPLC-MS/MS analysis; format: ADME; conditions: liver microsomes
[9] = Metabolic Stability in human liver microsome assessed as microsomal intrinsic clearance at […] measured upto 60 mins by HPLC-MS/MS analysis; format: ADME; conditions: liver microsomes, read-out: CLH
[10] = target: T5, Nuclear receptor ROR-gamma; assay: Inverse agonist activity at biotinylated APC-labeled RORgammat LBD (unknown origin) assessed as inhibition of europium-labeled SRC1 coactivator peptide recruitment incubated for 1 hr by dual FRET assay

| Structure (SMILES) | pEC50 [5] | half-life [6] | microsomal CLint [7] | half-life [8] | microsomal CLint [9] | further results |
| --- | --- | --- | --- | --- | --- | --- |
| CC(C)(C[C@H]1CN(S(=O)(=O)c2cccc(C(F)(F)F)c2)c2cc(-c3cc(F)cc(OC(F)F)c3)ccc2O1)C(=O)O [CINTIRORGON] |  |  |  |  |  | AUC(0-inf) at 24 h (in vivo): 3240 ng·h/mL; %max [1]: 100%; %max [2]: 67.3%; pEC50 [3]: 5.27; pEC50 (cells): 8.01; inhibition in vivo at 50 mg/kg (B16-F10): 45.3%; pEC50 [4]: 5.53 |
| CCS(=O)(=O)c1ccc(CC(=O)Nc2cc(Cl)c(-c3ccc(CC(C)C)c(C#N)c3)c(Cl)c2)nc1 |  | 37.4 min | 37 µL/min/mg | 9.3 min | 150 µL/min/mg |  |
| CCC(C)Cc1ccc(-c2c(Cl)cc(NC(=O)Cc3ccc(S(=O)(=O)CC)cc3)cc2Cl)cc1C#N (stereo unspecified) |  | 78.5 min | 17.6 µL/min/mg | 16.9 min | 81.9 µL/min/mg |  |
| CCS(=O)(=O)c1ccc(CC(=O)Nc2cc(Cl)c(-c3ccccc3)c(Cl)c2)cc1 |  |  |  |  |  | XC50 [10]: 9.2 nM |
| CCS(=O)(=O)c1ccc(CNC(=O)c2cc(Cl)c(-c3ccc(CC(C)C)c(C#N)c3)c(Cl)c2)cc1 |  | 28 min | 49.5 µL/min/mg | < 2.5 min | > 554 µL/min/mg |  |
| CCS(=O)(=O)c1ccc(CC(=O)Nc2cc(Cl)c(-c3ccc(C=C4CCC4)c(C#N)c3)c(Cl)c2)cc1 | 7.68 |  |  |  |  |  |
| CCS(=O)(=O)c1ccc(CNC(=O)Nc2cc(Cl)c(-c3ccc(CC(C)C)c(C#N)c3)c(Cl)c2)cc1 |  | 50.6 min | 27.4 µL/min/mg | 3.9 min | 354 µL/min/mg |  |
| CCS(=O)(=O)c1ccc(CC(=O)Nc2cc(Cl)c(-c3ccc(CC4CCCC4)c(C#N)c3)c(Cl)c2)cc1 | 7.84 |  |  |  |  |  |

The next lines start with results.

| pEC50 [5] | half-life [6] | microsomal CLint [7] | half-life [8] | microsomal CLint [9] | Structure (SMILES) | further results |
| --- | --- | --- | --- | --- | --- | --- |
| 7.90 |  |  |  |  | CCS(=O)(=O)c1ccc(CC(=O)Nc2cc(Cl)c(-c3ccc(CC(C)C)cc3)c(Cl)c2)cc1 |  |
|  | 12.9 min | 108 µL/min/mg |  |  | CCS(=O)(=O)c1ccc(CC(=O)Nc2cc(Cl)c(-c3ccc(CN(C)C)c(C#N)c3)c(Cl)c2)cc1 |  |
| 7.82 |  |  |  |  | CCS(=O)(=O)c1ccc(CC(=O)Nc2cc(Cl)c(-c3ccc(CC(C)C)c(F)c3)c(Cl)c2)cc1 |  |
| 7.91 | 37.7 min | 36.7 µL/min/mg | 2.6 min | 533 µL/min/mg | CCS(=O)(=O)c1ccc(CC(=O)Nc2cc(Cl)c(-c3ccc(CC(C)C)c(C#N)c3)c(Cl)c2)cc1 | pEC50 (cells): 7.89 |
